Results taken from patent US20010048926A1, “SYNTHETIC PEPTIDE VACCINES FOR DENTAL CARIES” (priority 1992, published 2001).

Key:
S. sobrinus GTF [1] = assay: ELISA of serum IgG antibody reacting with intact S. sobrinus GTF; type: in vivo; settings: 63 day sera, n=4-5 per group; FIG. 3
Excerpt: (§1) Glucosyltransferases: Glucosyltransferases (GTF) from S. sobrinus strain 6715 were purified from culture supernatants after bacterial growth in glucose-containing defined media, as described in Taubman et al. (J. Oral Pathol. 17:466-470 (1988)). Enzymes were separated from other culture supernatant proteins by affinity chromatography on Sephadex G-100 (Pharmacia Fine Chemicals), using 6M guanidine HCl as the eluting solvent. GTFs were then obtained from the guanidine HCl eluate by FPLC chromatography on Superose 6 (Pharmacia) using 6M guanidine for elution. GTF preparations contained a mixture of GTF-I, GTF-Sd, and GTF-Si.
(§2) Immunogenicity of Peptides: Sprague Dawley CD strain 43 day-old male rats (Charles River Laboratories) were used for injection. Six groups of 4-5 rats were injected subcutaneously in the vicinity of the salivary glands with 50 μg each of GGY, AND, SAND or CAT peptide constructs, 10 μg of GTF, or sham-immunized with buffer alone. The initial injection included complete Freund adjuvant (CFA; Difco); two subsequent injections at 21-day intervals included incomplete Freund adjuvant. Animals were bled prior to injection and 14-21 days after each injection. Serum from coagulated and centrifuged blood was stored frozen at −20° C. until use.
ELISA: Serum IgG and salivary IgA antibodies were tested by enzyme-linked immunosorbent assay (ELISA). Polystyrene microtiter plates (Flow Laboratories) were coated with […] of each peptide construct or 0.5 μg of S. sobrinus GTF. Antibody activity was then measured by incubation with 1:100 to 1:10^6 dilutions of sera, or 1:4 to 1:32 dilutions of saliva. Plates were then developed for IgG antibody rabbit anti-rat IgG followed in sequence by alkaline phosphatase goat anti-rabbit IgG (Biosource Inc.) and p-nitrophenylphosphate (Sigma). A mouse monoclonal reagent to rat α chain (Zymed, South San Francisco, Calif.) was used with biotinylated goat anti-mouse IgG (TAGO, Inc., Burlingame, Calif.) and avidin-alkaline phosphatase (Cappel) to reveal levels of salivary IgA antibody to peptides. Reactivity was recorded as absorbance (A405 nm) in a micro plate reader (Biotek Instruments). Data are reported as absorbance (A405 nm), reciprocal titer, or as ELISA units (EU) which were calculated relative to the levels of appropriate reference sera or salivas from Sprague Dawley rats thrice immunized with the respective peptide construct. Dilutions of 1:12,800 and 1:6,400 (A405 nm approximately 1.0) were considered 100 EU for serum IgG to the GGY and AND constructs, respectively. Dilutions of 1:32 were considered 100 EU for salivary IgA to both GGY and AND constructs.

CAT peptide construct = target: T1, CAT peptide construct (Streptococcus mutans serotype c, UniProt P08987); assay: Cross-reactivity ELISA, plates coated with CAT peptide construct; type: binding; settings: day 63 sera; FIG. 4
T1 construct: residues 442-462 of S. mutans GTF-B; purchased Applied Diagnostics, Foster City, Calif; host or cells: chemical solid phase synthesis
Procedure: as §2
(§3) ELISA: Serum IgG and salivary IgA antibodies were tested by enzyme-linked immunosorbent assay (ELISA). Polystyrene microtiter plates (Flow Laboratories) were coated with […] of each peptide construct or 0.5 μg of S. sobrinus GTF. Antibody activity was then measured by incubation with 1:100 to 1:10^6 dilutions of sera, or 1:4 to 1:32 dilutions of saliva. […] Reactivity was recorded as absorbance (A405 nm) in a micro plate reader (Biotek Instruments). Data are reported as absorbance (A405 nm), reciprocal titer, or as ELISA units (EU) which were calculated relative to the levels of appropriate reference sera or salivas from Sprague Dawley rats thrice immunized with the respective peptide construct. […]

AND peptide construct = target: T2, AND peptide construct (Streptococcus mutans serotype c, UniProt P08987); assay: Cross-reactivity ELISA, plates coated with AND peptide construct; type: binding; settings: day 63 sera; FIG. 4
T2 construct: GGY and AND were 19-mer peptides; purchased Applied Diagnostics, Foster City, Calif; host or cells: chemical solid phase synthesis
Procedure: as §2, §3

S. sobrinus GTF [2] = assay: Antibody inhibition of glucan synthesis (filter assay, 14C glucose incorporation into water-insoluble glucan); type: biochemical, S. sobrinus strain 6715
Excerpt: as §1
Antibody Inhibition of Glucan Synthesis: Selected rat sera were evaluated for their ability to inhibit glucan synthesis catalyzed by S. sobrinus GTF, using a filter assay. Ten μl volumes of sera (1:100 dilutions in 0.02M sodium phosphate buffered saline and 0.02% sodium azide [PBSA], pH 6.5) were preincubated with the respective GTF for 1 hour at 37° C. in a total volume of 0.04 ml PBSA. Then 1.7 mg sucrose, 44 nCi of [^14C-glucose]-sucrose (approximately 100,000 cpm) were added in 0.2 ml PESA in the presence of 37 μg of dextran T10 (Pharmacia). Incubation proceeded for 18 hours at 37° C., after which water-insoluble glucan was collected on Whatman GF/F glass fiber filters, washed with PBSA, and radioactivity determined as described in Smith et al. (Infect. Immunity 62:5470-5476 (1994)).

anti-GGY serum = assay: Epitope mapping by ELISA inhibition, anti-GGY serum on GGY-coated plates; type: binding, rat; settings: anti-GGY serum preincubated with heptamer or intact peptide; FIG. 8
Procedure: Epitope Mapping: B cell epitopes were mapped on the GGY and AND peptides by an ELISA inhibition technique. Anti-GGY or anti-AND sera were preincubated with 13 separate heptamers representing the incremental peptide sequence of the respective peptide, or with intact peptide, followed by the conventional ELISA with intact peptide-coated plates. B cell epitopes were indicated by a significant reduction in absorbance.

S. mutans SJ32 = assay: Protection experiments: caries assessment (modified Keyes method) after S. mutans infection; type: in vivo, Sprague-Dawley rats
Excerpt: Experimental Protocol for Protection Experiments: Animals used in the present experiments were derived from germ-free Sprague-Dawley rats that had been reared in the isolator facility of Charles River Laboratories, Wilmington, Mass. (Area 051). […] These rats served as initial breeding stock for dams used in these experiments and were regularly monitored for absence of mutans streptococci. The progeny of the dams used for the present experiments were weaned at approximately 21 days and were subsequently fed high sucrose Diet 2000.
Two experiments were performed. Groups (n=11-12) of 23-26 day-old rats were subcutaneously (sc) injected in the salivary gland vicinity with (experiment 1) GGY (50 μg), AND (50 μg) or GTF(10 μg), or phosphate buffered saline (control animals), or (experiment 2) GGY (50 ;μg) or PBS. Each antigen was incorporated with complete Freund adjuvant in both experiments. Eight (experiment 1) or 14 (experiment 2) days later, rats were reinjected with PBS or with the same antigen and dose in incomplete Freund adjuvant. Six (experiment 1) or 12 (experiment 2) days after the second injection, animals were bled from the tail vein, and saliva was collected after injection of pilocarpine (1.0 mg/100 g body weight). Fourteen (experiment 1) or 11 (experiment 2) days after the second injection, all rats were orally infected with approximately 10^8 S. mutans for 3 consecutive days. Both experiments were terminated 63 days after initial infection.
Caries assessment: The extent and depth of carious lesions in all rat molar teeth (caries score) were microscopically evaluated by a modified Keyes method as previously described (Taubman et al., J. Immunol. 118:710-720 (1977)). Caries scores were determined separately on smooth and on sulcal dental surfaces.

T1 sequence (P08987 442-462 limits assumed): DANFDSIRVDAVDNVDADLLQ

GGYEFLLANDVDNSNPVVQ
IgG antibody reactivity with intact S. sobrinus GTF (S. sobrinus GTF [1]): significant reactivity with GTF | reaction of serum IgG antibody with the CAT peptide (CAT peptide construct): low but significant reaction | reaction of serum IgG antibody with the AND peptide construct (AND peptide construct): significant reaction | inhibition of formation of water-insoluble glucan from sucrose by S. sobrinus GTF (in words) (S. sobrinus GTF [2]; 63 day sera from injected rats, AND p<0.01, FIG. 5): more variable | inhibition of GTF activity (S. sobrinus GTF [2]; one rat serum, 63 day, relative to mean of sham sera): 35% | inhibition of GGY antibody binding to intact peptide-coated plates (anti-GGY serum): completely inhibited | mean and median total, smooth surface, and occlusal caries scores vs sham-injected group (S. mutans SJ32; both experiments): lower than the respective scores of the sham-injected group | Total molar caries scores vs sham-injected groups (S. mutans SJ32; both experiments, p<0.05): significantly lower | smooth surface caries vs sham-injected group (S. mutans SJ32; experiment 1, GGY p<0.032, GTF p<0.045): Protection was most evident on smooth surfaces | smooth surface caries vs sham-injected group (S. mutans SJ32; experiment 2, p<0.027): Protection was most evident on smooth surfaces | protection after infection of rats with cariogenic S. mutans (S. mutans SJ32; summary statement): significant protection
